Assay results taken from ChEMBL document CHEMBL3885861, “Open TG-GATES”.

Species on record: Rattus norvegicus
Experiment: Open TG-GATES - Regimen: Single
Assay type: toxicity, organism-based, Sprague-Dawley
Set-up: regimen Single, gender Male, age 6 weeks
Details: in vivo, po, 3 mg/kg, route gavage, dose level Low; for APTT / Bas / Eos / Fbg / Hb / Ht / Lym / MCH / MCHC / MCV / Mono / Neu / PT / Plat / RBC / Ret / WBC: tissue Blood; for KIDNEY_L / KIDNEY_R / KIDNEY_TOTAL: tissue Kidney; for LIVER: tissue Liver; for A/G / ALP / ALT / AST / BUN / CRE / Ca / Cl / DBIL / GLC / IP / K / LDH / Na / PL / RALB / TBIL / TC / TG / TP / gamma-GTP: tissue Plasma

`Cn1cnc([N+](=O)[O-])c1Sc1ncnc2nc[nH]c12` [AZATHIOPRINE] showed a TERMINAL_BW (3 h) of 191 g, an APTT (3 h) of 23.4 s and a Bas (3 h) of 0%. The Eos (3 h) was 1%, the Fbg (3 h) was 295.8 mg/dL and the Hb (3 h) was 13.4 g/dL. The Ht (3 h) was 40.1%, the Lym (3 h) was 77.8% and the MCH (3 h) was 21.6 pg. For the same compound, the MCHC (3 h) was 33.4%, the MCV (3 h) was 64.6 fL and the Mono (3 h) was 1.8%. For the same compound, the Neu (3 h) was 18.2%, the PT (3 h) was 15.8 s and the Plat (3 h) was 115.7 x10_4/uL. The RBC (3 h) was 621.4 x10_4/ul, the Ret (3 h) was 9.1% and the WBC (3 h) was 67.9 x10_2/uL. For the same compound, the KIDNEY_L (3 h) was 0.8 g, the KIDNEY_R (3 h) was 0.9 g and the KIDNEY_TOTAL (3 h) was 1.7 g. For the same compound, the LIVER (3 h) was 8.6 g, the A/G (3 h) was 1.2 and the ALP (3 h) was 1535.2 IU/L. For the same compound, the ALT (3 h) was 41.6 IU/L, the AST (3 h) was 73.4 IU/L and the BUN (3 h) was 13.2 mg/dL. For the same compound, the CRE (3 h) was 0.1 mg/dL, the Ca (3 h) was 10.6 mg/dL and the Cl (3 h) was 106.8 meq/L. For the same compound, the DBIL (3 h) was 0.002 mg/dL, the GLC (3 h) was 190.2 mg/dL and the IP (3 h) was 8.1 mg/dL. The K (3 h) was 4.2 meq/L, the LDH (3 h) was 273.6 IU/L and the Na (3 h) was 142.8 meq/L. For the same compound, the PL (3 h) was 139.2 mg/dL, the RALB (3 h) was 3 g/dL and the TBIL (3 h) was 0.004 mg/dL. It also gave a TC (3 h) of 75.4 mg/dL, a TG (3 h) of 68 mg/dL and a TP (3 h) of 5.5 g/dL. It also gave a gamma-GTP (3 h) of 1 IU/L, a TERMINAL_BW (6 h) of 185.7 g and an APTT (6 h) of 21.8 s. The Bas (6 h) was 0%, the Eos (6 h) was 0.8% and the Fbg (6 h) was 324.4 mg/dL. It also gave a Hb (6 h) of 13.1 g/dL, a Ht (6 h) of 39% and a Lym (6 h) of 69.2%. The MCH (6 h) was 22.3 pg, the MCHC (6 h) was 33.6% and the MCV (6 h) was 66.3 fL. It also gave a Mono (6 h) of 2.2%, a Neu (6 h) of 26.2% and a PT (6 h) of 15.7 s. The Plat (6 h) was 130.1 x10_4/uL, the RBC (6 h) was 589.2 x10_4/ul and the Ret (6 h) was 9.5%. It also gave a WBC (6 h) of 95.2 x10_2/uL, a KIDNEY_L (6 h) of 0.8 g and a KIDNEY_R (6 h) of 0.8 g. The KIDNEY_TOTAL (6 h) was 1.7 g, the LIVER (6 h) was 8.1 g and the A/G (6 h) was 1.2. The ALP (6 h) was 1674.4 IU/L, the ALT (6 h) was 43.2 IU/L and the AST (6 h) was 75 IU/L. The BUN (6 h) was 9.4 mg/dL, the CRE (6 h) was 0.1 mg/dL and the Ca (6 h) was 10.5 mg/dL. For the same compound, the Cl (6 h) was 106.8 meq/L, the DBIL (6 h) was 0.002 mg/dL and the GLC (6 h) was 182.4 mg/dL. It also gave an IP (6 h) of 8.8 mg/dL, a K (6 h) of 4.2 meq/L and an LDH (6 h) of 288.6 IU/L. For the same compound, the Na (6 h) was 142.2 meq/L, the PL (6 h) was 135.8 mg/dL and the RALB (6 h) was 3 g/dL. For the same compound, the TBIL (6 h) was 0.008 mg/dL, the TC (6 h) was 78.8 mg/dL and the TG (6 h) was 48.4 mg/dL. It also gave a TP (6 h) of 5.5 g/dL, a gamma-GTP (6 h) of 1 IU/L and a TERMINAL_BW (9 h) of 186.8 g. For the same compound, the APTT (9 h) was 22.5 s, the Bas (9 h) was 0% and the Eos (9 h) was 1%. It also gave a Fbg (9 h) of 311.8 mg/dL, a Hb (9 h) of 13 g/dL and a Ht (9 h) of 38.7%. The Lym (9 h) was 74%, the MCH (9 h) was 21.2 pg and the MCHC (9 h) was 33.5%. It also gave an MCV (9 h) of 63.4 fL, a Mono (9 h) of 2.4% and a Neu (9 h) of 20.6%. For the same compound, the PT (9 h) was 15.3 s, the Plat (9 h) was 125.3 x10_4/uL and the RBC (9 h) was 611 x10_4/ul. For the same compound, the Ret (9 h) was 9.3%, the WBC (9 h) was 83.5 x10_2/uL and the KIDNEY_L (9 h) was 0.9 g. For the same compound, the KIDNEY_R (9 h) was 0.9 g, the KIDNEY_TOTAL (9 h) was 1.7 g and the LIVER (9 h) was 7.5 g. It also gave an A/G (9 h) of 1.2, an ALP (9 h) of 1456.2 IU/L and an ALT (9 h) of 38.4 IU/L. It also gave an AST (9 h) of 70.4 IU/L, a BUN (9 h) of 10.6 mg/dL and a CRE (9 h) of 0.1 mg/dL. For the same compound, the Ca (9 h) was 10.5 mg/dL, the Cl (9 h) was 107 meq/L and the DBIL (9 h) was 0 mg/dL. It also gave a GLC (9 h) of 183.4 mg/dL, an IP (9 h) of 9.3 mg/dL and a K (9 h) of 4.2 meq/L. The LDH (9 h) was 234.2 IU/L, the Na (9 h) was 141.6 meq/L and the PL (9 h) was 140.8 mg/dL. For the same compound, the RALB (9 h) was 2.9 g/dL, the TBIL (9 h) was 0.016 mg/dL and the TC (9 h) was 83.4 mg/dL. The TG (9 h) was 51.8 mg/dL, the TP (9 h) was 5.4 g/dL and the gamma-GTP (9 h) was 1 IU/L. It also gave a TERMINAL_BW (24 h) of 202.9 g, an APTT (24 h) of 21.3 s and a Bas (24 h) of 0%. For the same compound, the Eos (24 h) was 1%, the Fbg (24 h) was 322.4 mg/dL and the Hb (24 h) was 13.5 g/dL. It also gave a Ht (24 h) of 39.2%, a Lym (24 h) of 77.8% and an MCH (24 h) of 21.9 pg. It also gave an MCHC (24 h) of 34.5%, an MCV (24 h) of 63.4 fL and a Mono (24 h) of 2.2%. It also gave a Neu (24 h) of 18.4%, a PT (24 h) of 16 s and a Plat (24 h) of 135.6 x10_4/uL. It also gave an RBC (24 h) of 618.4 x10_4/ul, a Ret (24 h) of 8.2% and a WBC (24 h) of 63.3 x10_2/uL. For the same compound, the KIDNEY_L (24 h) was 0.9 g, the KIDNEY_R (24 h) was 0.9 g and the KIDNEY_TOTAL (24 h) was 1.8 g. For the same compound, the LIVER (24 h) was 9.7 g, the A/G (24 h) was 1.3 and the ALP (24 h) was 1726.6 IU/L. It also gave an ALT (24 h) of 48.8 IU/L, an AST (24 h) of 75.4 IU/L and a BUN (24 h) of 14.6 mg/dL. For the same compound, the CRE (24 h) was 0.1 mg/dL, the Ca (24 h) was 11.1 mg/dL and the Cl (24 h) was 106.8 meq/L. The DBIL (24 h) was 0 mg/dL, the GLC (24 h) was 189 mg/dL and the IP (24 h) was 7.2 mg/dL. For the same compound, the K (24 h) was 4.1 meq/L, the LDH (24 h) was 318.6 IU/L and the Na (24 h) was 143.4 meq/L. The PL (24 h) was 148.2 mg/dL, the RALB (24 h) was 3.2 g/dL and the TBIL (24 h) was 0.004 mg/dL. The TC (24 h) was 76.4 mg/dL, the TG (24 h) was 120 mg/dL and the TP (24 h) was 5.7 g/dL. The gamma-GTP (24 h) was 1.2 IU/L.
